Test results taken from patent US9592300B2, “Methods of using redox-active surfactants to control polymer interactions” (WISCONSIN ALUMNI RESEARCH FOUNDATION, priority 2005, dated 2017).
Like-named read-outs stand apart in the source and are kept apart here.

Assays:
[1] = assay type: physicochemical; conditions: for cloud point: 0.1 wt % EHEC, 0.1M Li2SO4
Procedure: Surfactant-ethyl(hydroxylethyl) cellulose (EHEC) interactions were characterized by observing the clouding temperature of solutions of EHEC containing various concentrations of surfactant.
Sample Preparation. Three samples of each solution were prepared to assess reproducibility. […] The EHEC solution was filtered through 0.22 μm GV Millipore filter, placed under vacuum for 30-45 minutes, then bubbled with argon for another 30-45 minutes. This deaeration procedure was performed for all solutions, including solutions of DTAB.
The solutions of polymer, salt, and surfactant were then mixed to form 0.1 wt % EHEC, 0.1M Li2SO4, and the desired concentration of surfactant. These solutions were deaerated three times and bubbled with argon inside airtight containers. These solutions were stored at 25° C. and measured after 3 hours and 1 day.
They were simply filtered, mixed to the desired concentrations, and stored for one day before measurements of cloud points and light scattering were performed.
Cloud Point Measurements. Solution of EHEC and surfactant were immersed in a temperature bath controlled to within 0.1° C. The temperature was increased by 1° C. every 10 minutes and the solutions were visually inspected for clouding. […] The values reported in this study are based on clouding points measured upon increasing the temperature of the solutions.

[2] = Critical micelle concentration (CMC) in 0.1M Li2SO4; assay type: physicochemical
[3] = Dynamic light scattering of surfactant micelles (no polymer); assay type: physicochemical; conditions: 0.1M Li2SO4, no polymer, […]° C., center-of-mass diffusion of spheres (200 mmolal DTAB; 25 mmolal reduced FTMA)
COS-7 cells [4] = conditions: for concentrations at which maximum gene expression is observed: medium with 10% fetal bovine serum
COS-7 cells [5] = system: COS-7 cells
Procedure: Preparation of lipoplexes for Transfection Assays.
Cells were then incubated for 48 hours and cell morphology and relative levels of EGFP expression were characterized using phase contrast and fluorescence microscopy.
For these experiments, cells were incubated with lipoplexes for four hours in serum-free medium, followed by incubation in fresh serum-containing medium (see Materials and Methods Section for complete description of transfection procedures).

[6] = QLS hydrodynamic size of BFDMA solutions without DNA; assay type: physicochemical; conditions: 10 μM BFDMA, Opti-MEM, 25° C.
Procedure: (§1) 1) A solution of 100 μM reduced BFDMA was prepared by dissolving BFDMA (solid) in water.
(§2) 2) A solution of 100 μM oxidized BFDMA was prepared as follows: First, a […] reduced BFDMA solution was prepared by dissolving BFDMA (solid) in 1 mM Li2SO4 aqueous solution, and then the solution was oxidized electrochemically. The resultant oxidized BFDMA solution was diluted with water to give a solution of 100 μM oxidized BFDMA.
150 μl of 100 μM reduced/oxidized BFDMA solution was diluted with 150 μl of water, followed by the addition of 1.2 ml of Opti-MEM. The final BFDMA concentration was 10 μM. QLS measurements were made at 25° C. immediately after the samples were prepared.

COS-7 cells [7] = experiment: Live/dead cytotoxicity assay of lipoplexes
pEGFP-N1 = conditions: serum-free cell culture medium
pGFP = experiment: QLS hydrodynamic size of BFDMA/DNA complexes; assay type: physicochemical; conditions: 10 μM BFDMA, 2.4 μg/ml DNA, Opti-MEM, 25° C.
Procedure: as §1, §2
1) 150 μl of 100 μM reduced/oxidized BFDMA solution was diluted with 150 μl of 24 μg/ml pGFP aqueous solution, and the solution was allowed to stand for 20 min at room temperature. 1.2 ml of Opti-MEM was added to the solution to yield a final BFDMA concentration of 10 μM and a final DNA concentration of 2.4 μg/ml. QLS measurements were made at 25° C. immediately after the samples were prepared.

[8] = Phase behaviour of FS with HM-EHEC; assay type: physicochemical; conditions: 1 wt % HM-EHEC, 10 mM Li2SO4, pH 5
Excerpt: The top layer had low viscosity (similar to that of water) and was mildly cloudy; the bottom layer was yellow and highly viscous, almost gel-like. As the concentration of reduced FS increased, the top layer became more cloudy and the bottom layer became less viscous (up to 5 mmolal). As the concentration of reduced FS was decreased (down to 0.1 mmolal), the top layer cleared and the bottom layer became less viscous. […] The solutions made with oxidized FS were faintly blue and cloudy as the concentration increased (from 0.1 to 0.5 mmolal).

[9] = [BFDMA] 6 μM, listed as Ox. BFDMA
[10] = [BFDMA] 8 μM, listed as Ox. BFDMA
[11] = [BFDMA] 10 μM, listed as Ox. BFDMA
[12] = [BFDMA] 20 μM, listed as Ox. BFDMA
[13] = [BFDMA] 60 μM, listed as Ox. BFDMA
[14] = [BFDMA] 6 μM, listed as Red. BFDMA
[15] = [BFDMA] 8 μM, listed as Red. BFDMA
[16] = [BFDMA] 10 μM, listed as Red. BFDMA
[17] = [BFDMA] 20 μM, listed as Red. BFDMA
[18] = [BFDMA] 60 μM, listed as Red. BFDMA
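For Intensity-Avg Diameter in this document: dynamic light scattering of lipoplexes formed from BFDMA and pEGFP-N1 plasmid (2.4 µg/ml), scattering angles 30° to 110°, autocorrelation functions analysed with CONTIN.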
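For Number-Avg Diameter in this document: dynamic light scattering of lipoplexes formed from BFDMA and pEGFP-N1 plasmid (2.4 µg/ml), scattering angles 30° to 110°, autocorrelation functions analysed with CONTIN.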

## O=S(=O)([O-])[O-].[Li+].[Li+] [Li2SO4]
[1]; 0.1% (w/w) EHEC, 1M Li2SO4, pH 2.5
  clouding temperature: less than 6 °C

## CCCCCCCCCCCC[N+](C)(C)C.[Br-] [DTAB, dodecyltrimethyl ammonium bromide]
[2]
  CMC: 10 mM
[1]; 1 mM DTAB
  clouding temperature compared to solutions free of DTAB: not measurably lowered
[1]; 5 mmolal DTAB (from 32° C. to 26° C.)
  lowering of clouding temperature of EHEC solutions: 6 °C
[1]; 5 mmolal DTAB
  cloud point: 26-27 °C
[1]; DTAB concentrations near its CMC (10 mM)
  cloud point: 14±0.3 °C
[3]
  hydrodynamic diameter of micelles: 4 nm

## C[N+](C)(CCCCCCCCCCC[c-]1cccc1)CCCCCCCCCCC[c-]1cccc1.[Br-].[Fe+2].[Fe+2].c1cc[cH-]c1.c1cc[cH-]c1 [BFDMA, bis(11-ferrocenylundecyl)dimethylammonium bromide]
COS-7 cells [4]; four hours exposure, 10% fetal bovine serum
  magnitude of gene expression in presence of serum relative to serum-free medium: approximately one order of magnitude lower
COS-7 cells [5]; oxidized at 500 mV, then reduced at −44 mV prior to contact with DNA
  transfection activity following electrochemical cycling (EGFP expression): retains transfection activity

## C[N+](C)(CCCCCCCCCCC[c-]1cccc1)CCCCCCCCCCC[c-]1cccc1.[Br-].[Fe+2].[Fe+2].c1cc[cH-]c1.c1cc[cH-]c1 [oxidized BFDMA, bis(11-ferrocenylundecyl)dimethylammonium bromide]
[6]; time 0 min, listed as ox
  hydrodynamic size of aggregates w/o DNA: 363.4 nm
[6]; time 120 min, listed as ox
  hydrodynamic size of aggregates w/o DNA: 496 nm
[6]; time 240 min, listed as ox
  hydrodynamic size of aggregates w/o DNA: 511 nm
COS-7 cells [7]; 2 hours exposure, any concentration evaluated (2 μM to 60 μM), OptiMEM
  cytotoxicity relative to DNA alone or commercial controls: not cytotoxic
COS-7 cells [7]; 4 hours exposure, e.g. 40 μM and 60 μM
  toxicity: increases at higher concentrations
COS-7 cells [4]; 2 hours exposure, serum-free
  levels of gene expression versus reduced BFDMA: dramatically lower
COS-7 cells [4]; 12 hour exposure, serum-free, 20 μM
  luciferase expression: in excess of expression mediated by reduced BFDMA
COS-7 cells [4]; four hours exposure
  concentrations at which maximum gene expression is observed: 40 µM and 60 µM
pEGFP-N1; [BFDMA] 2 μM, 600 ng DNA, listed as Ox. BFDMA
  Number-Avg Diameter: 89 (±40) nm
pEGFP-N1; [BFDMA] 2 μM, listed as Ox. BFDMA
  Intensity-Avg Diameter: 196 (±86) nm
pEGFP-N1; [9]
  Intensity-Avg Diameter: 217 (±58) nm
  Number-Avg Diameter: 64 (±25) nm
pEGFP-N1; [10]
  Intensity-Avg Diameter: 228 (±100) nm
  Number-Avg Diameter: 86 (±37) nm
pEGFP-N1; [11]
  Intensity-Avg Diameter: 266 (±212) nm
  Number-Avg Diameter: 110 (±55) nm
pEGFP-N1; [BFDMA] 20 μM
  Number-Avg Diameter: ca. 610 nm
pEGFP-N1; [12]
  Intensity-Avg Diameter: 1163 (±150) nm
  Number-Avg Diameter: 611 (±183) nm
pEGFP-N1; [13]
  Intensity-Avg Diameter: 1497 (±340) nm
  Number-Avg Diameter: 1254 (±512) nm
COS-7 cells [5]; 20 μM lipid, 4 h exposure in serum-free medium, 48 h
  EGFP expression (cell transfection): relatively high levels
COS-7 cells [5]; 2-40 μM lipid, 4 h exposure in serum-free medium, 48 h
  EGFP gene expression, generally: very low levels
pGFP; time 0 min, listed as ox
  hydrodynamic size of aggregates w/ DNA: 209.6 nm
pGFP; time 120 min, listed as ox
  hydrodynamic size of aggregates w/ DNA: 221.4 nm
pGFP; time 240 min, listed as ox
  hydrodynamic size of aggregates w/ DNA: 297.2 nm

## 11-ferrocenylundecylsulfonate [oxidized FS]
[8]
  liquid-liquid phase separation: did not form two coexisting liquid phases

## C[N+](C)(CCCCCCCCCCC[c-]1cccc1)CCCCCCCCCCC[c-]1cccc1.[Br-].[Fe+2].[Fe+2].c1cc[cH-]c1.c1cc[cH-]c1 [reduced BFDMA, bis(11-ferrocenylundecyl)dimethylammonium bromide]
[6]; time 0 min, listed as red
  hydrodynamic size of aggregates w/o DNA: 472.8 nm
[6]; time 120 min, listed as red
  hydrodynamic size of aggregates w/o DNA: 1214 nm
[6]; time 240 min, listed as red
  hydrodynamic size of aggregates w/o DNA: 1090.3 nm
COS-7 cells [7]; 2 hours exposure, 2 μM to 10 μM
  cytotoxicity: not cytotoxic
COS-7 cells [7]; 2 hours exposure, 20 μM
  cytotoxicity: increases slightly
COS-7 cells [7]; 2 hours exposure, 40 μM and 60 μM
  cytotoxicity: substantially cytotoxic
COS-7 cells [7]; 12 hours exposure, 6 μM to 10 μM, versus two or four hours
  cytotoxicity: more cytotoxic
COS-7 cells [7]; 12 hours exposure, 20 μM
  cytotoxicity: cytotoxic
COS-7 cells [7]; two or four hours exposure, 20 μM
  cytotoxicity: not substantially cytotoxic
COS-7 cells [4]; 2 hours exposure, serum-free, 2 μM and 40 μM and 60 μM
  luciferase expression (normalized to total cell protein): low
COS-7 cells [4]; 2 hours exposure, serum-free, 4 μM to 20 μM
  luciferase expression (normalized to total cell protein): significantly higher
COS-7 cells [4]; four and twelve hours exposure, serum-free, 6 μM to 20 μM
  luciferase expression versus Lipofectamine 2000 and TransIT-LT1: comparable to or measured to be in excess of
COS-7 cells [4]; four hours exposure
  concentrations at which maximum gene expression is observed: 20 µM and 40 µM
pEGFP-N1; [BFDMA] 2 μM, 600 ng DNA, listed as Red. BFDMA
  Number-Avg Diameter: 158 (±64) nm
pEGFP-N1; [BFDMA] 2 μM, listed as Red. BFDMA
  Intensity-Avg Diameter: 369 (±74) nm
pEGFP-N1; [14]
  Intensity-Avg Diameter: 603 (±262) nm
  Number-Avg Diameter: 231 (±88) nm
pEGFP-N1; [15]
  Intensity-Avg Diameter: 951 (±504) nm
  Number-Avg Diameter: 297 (±126) nm
pEGFP-N1; [16]
  Intensity-Avg Diameter: 1118 (±426) nm
  Number-Avg Diameter: 219 (±126) nm
pEGFP-N1; [17]
  Intensity-Avg Diameter: 2766 (±725) nm
  Number-Avg Diameter: 1490 (±750) nm
pEGFP-N1; [18]
  Intensity-Avg Diameter: 4777 (±1350) nm
  Number-Avg Diameter: 1921 (±1220) nm
COS-7 cells [5]; 2 μM lipid, 4 h exposure in serum-free medium, 48 h
  EGFP expression: relatively low levels
COS-7 cells [5]; 10 μM and 20 μM lipid, 4 h exposure in serum-free medium, 48 h
  EGFP expression (transfection): increased significantly
COS-7 cells [5]; 40 μM lipid, 4 h exposure in serum-free medium, 48 h
  EGFP expression (transfection): significantly reduced
COS-7 cells [5]; concentrations above 40 μM
  cell death by phase contrast microscopy: Significant cell death
pGFP; time 0 min, listed as red
  hydrodynamic size of aggregates w/ DNA: 689.7 nm
pGFP; time 120 min, listed as red
  hydrodynamic size of aggregates w/ DNA: 2613.9 nm
pGFP; time 240 min, listed as red
  hydrodynamic size of aggregates w/ DNA: 2995.5 nm

## 11-ferrocenylundecylsulfonate [reduced FS]
[8]
  liquid-liquid phase separation: caused a liquid-liquid phase separation
